According to ChEMBL document CHEMBL1201862, “PubChem BioAssay data set” (2004):
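Compound exposure: 48 hours, 5 concentrations, 96-well plates. GI50 is the concentration that inhibits growth by half.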 Active and inactive are the calls of the source. No stated cut-off is given here; in the data, active = GI50 up to about 1.1 µM and inactive = higher.

Key:
Assay in all cases: growth of human tumour cells (NCI), 48 h
OVCAR-4 = test system: OVCAR-4
786-0 = test system: 786-0
OVCAR-3 = test system: OVCAR-3
A498 = test system: A498
U-251 = test system: U-251
COLO 205 = test system: COLO 205
MOLT-4 = test system: MOLT-4
SK-MEL-5 = test system: SK-MEL-5
NCI-H226 = test system: NCI-H226
NCI-H460 = test system: NCI-H460
NCI-H522 = test system: NCI-H522
LOX IMVI = test system: LOX IMVI
SF-268 = test system: SF-268
SN12C = test system: SN12C
SNB-75 = test system: SNB-75
UO-31 = test system: UO-31
UACC-257 = test system: UACC-257
MDA-N = test system: MDA-N
HOP-62 = test system: HOP-62

Measured: GI50

O=C(Nc1ccccc1)c1cc(S(=O)(=O)N2CCNNC2=O)c(S)cc1Cl
inactive: OVCAR-4 > 100 µM | 786-0 47.6 µM | OVCAR-3 > 100 µM | A498 > 100 µM | U-251 > 100 µM | COLO 205 > 100 µM | MOLT-4 71.6 µM | SK-MEL-5 > 100 µM | NCI-H226 > 100 µM | NCI-H460 > 100 µM | NCI-H522 24.7 µM | LOX IMVI 43.7 µM | SF-268 > 100 µM | SN12C > 100 µM | SNB-75 > 100 µM | UO-31 > 100 µM | UACC-257 > 100 µM | MDA-N > 100 µM

CCOC(=O)[C@@H]1ON2O[C@@H](OC3CCCC3(c3ccccc3)c3ccccc3)C[C@H]3OC(=O)[C@@H]1C32 (some centres undefined)
inactive: 786-0 30.2 µM | OVCAR-3 23.4 µM | A498 > 100 µM | U-251 56.4 µM | COLO 205 38.1 µM | MOLT-4 29.9 µM | SK-MEL-5 32 µM | NCI-H226 56.6 µM | NCI-H460 35.6 µM | NCI-H522 33.1 µM | LOX IMVI 37.8 µM | HOP-62 31 µM | SF-268 28.7 µM | SN12C 32.8 µM | SNB-75 32.4 µM | UO-31 19.1 µM | UACC-257 21.4 µM | MDA-N 20.7 µM

CCOC(=O)C1=CN2C(=N[C@H]3CCCC[C@@H]32)NC1=O
inactive: OVCAR-4 > 100 µM | 786-0 > 100 µM | OVCAR-3 > 100 µM | A498 > 100 µM | U-251 > 100 µM | COLO 205 > 100 µM | MOLT-4 > 100 µM | SK-MEL-5 > 100 µM | NCI-H226 > 100 µM | NCI-H460 > 100 µM | NCI-H522 > 100 µM | LOX IMVI > 100 µM | SF-268 > 100 µM | SN12C > 100 µM | SNB-75 > 100 µM | UO-31 > 100 µM | UACC-257 > 100 µM | MDA-N > 100 µM

CCc1n[nH]c(=O)n1/N=C(\C)c1ccccc1
inactive: OVCAR-4 > 100 µM | 786-0 > 100 µM | OVCAR-3 > 100 µM | A498 > 100 µM | U-251 > 100 µM | COLO 205 > 100 µM | MOLT-4 > 100 µM | SK-MEL-5 > 100 µM | NCI-H226 > 100 µM | NCI-H522 > 100 µM | LOX IMVI > 100 µM | HOP-62 > 100 µM | SF-268 > 100 µM | SN12C > 100 µM | UO-31 > 100 µM | UACC-257 > 100 µM | MDA-N > 100 µM

Nc1nc(Cc2ccccc2)nc(Cc2ccccc2)c1-c1ccccc1
inactive: OVCAR-4 38.5 µM | 786-0 22.9 µM | OVCAR-3 14.7 µM | A498 26 µM | U-251 17.9 µM | MOLT-4 11.2 µM | SK-MEL-5 15.5 µM | NCI-H226 19.2 µM | NCI-H460 28.2 µM | NCI-H522 16.9 µM | LOX IMVI 21.3 µM | HOP-62 20.7 µM | SF-268 31 µM | SN12C 28.2 µM | UO-31 27 µM | UACC-257 37.3 µM | MDA-N 16.1 µM

COc1ccc([C@H]2C=C(c3cc(F)c(Cl)cc3Cl)N=c3s/c(=C\c4ccc(-c5ccc(Cl)cc5Cl)o4)c(=O)n32)cc1
inactive: OVCAR-4 37.3 µM | 786-0 42.4 µM | A498 2.48 µM | U-251 34.8 µM | COLO 205 80 µM | MOLT-4 31.9 µM | SK-MEL-5 36.6 µM | NCI-H226 24.6 µM | NCI-H460 48.4 µM | NCI-H522 52.2 µM | LOX IMVI 38 µM | HOP-62 18.8 µM | SF-268 35.6 µM | SN12C 47.8 µM | SNB-75 38.4 µM | UO-31 32.9 µM | UACC-257 30 µM | MDA-N 28.1 µM

O=C(Nc1ccccc1)N1N=C(c2ccccc2)C1c1ccccc1 (centres undefined)
inactive: OVCAR-4 41.1 µM | 786-0 16.4 µM | OVCAR-3 20.7 µM | A498 18.5 µM | U-251 36.2 µM | COLO 205 41.7 µM | SK-MEL-5 22.1 µM | NCI-H226 18.8 µM | NCI-H460 42.3 µM | NCI-H522 19.9 µM | LOX IMVI 29.9 µM | SF-268 21.1 µM | SN12C 48 µM | SNB-75 15.8 µM | UO-31 15.2 µM | UACC-257 31.8 µM | MDA-N 27.4 µM

c1ccc(C[N+]23C(CC[C@H]2c2ccccc2)CC[C@H]3c2ccccc2)cc1 (some centres undefined)
inactive: OVCAR-4 31 µM | 786-0 32.4 µM | OVCAR-3 14.3 µM | A498 > 100 µM | U-251 25.3 µM | COLO 205 11.2 µM | MOLT-4 27.9 µM | SK-MEL-5 5.43 µM | NCI-H226 22.1 µM | NCI-H522 18 µM | LOX IMVI 29.2 µM | HOP-62 33.5 µM | SF-268 43.5 µM | SN12C 37.5 µM | SNB-75 21.4 µM | UO-31 > 100 µM | UACC-257 6.24 µM | MDA-N 21.2 µM

Cc1ccccc1-n1c(=O)c2ncn(C3CCCO3)c2n(-c2ccccc2C)c1=S (centres undefined)
inactive: OVCAR-4 > 10 µM | 786-0 > 100 µM | OVCAR-3 > 100 µM | A498 > 100 µM | COLO 205 > 100 µM | MOLT-4 > 100 µM | SK-MEL-5 > 100 µM | NCI-H226 > 100 µM | NCI-H522 > 100 µM | LOX IMVI > 100 µM | HOP-62 > 100 µM | SF-268 > 100 µM | SN12C > 100 µM | SNB-75 79.4 µM | UO-31 > 100 µM | UACC-257 > 100 µM | MDA-N > 100 µM

C=CC[C@H](O)[C@@](NC(=O)OCc1ccccc1)(Sc1ccc(C)cc1)C(F)(F)F
inactive: OVCAR-4 28.2 µM | 786-0 16.9 µM | OVCAR-3 21.8 µM | A498 65.3 µM | U-251 14.5 µM | COLO 205 20.3 µM | MOLT-4 20.3 µM | SK-MEL-5 26.9 µM | NCI-H226 16.5 µM | NCI-H460 30.7 µM | NCI-H522 15.5 µM | LOX IMVI 4.44 µM | HOP-62 28.9 µM | SF-268 18.1 µM | SN12C 17.3 µM | UO-31 17.9 µM | UACC-257 23.4 µM | MDA-N 19.2 µM

C=C1C(NC)CCC23CC24CCC2(C)C(C(C)=O)C(O)CC2(C)C4CCC13 (centres undefined)
inactive: OVCAR-4 > 100 µM | 786-0 80.5 µM | OVCAR-3 > 100 µM | A498 > 100 µM | U-251 > 100 µM | COLO 205 > 100 µM | MOLT-4 > 100 µM | SK-MEL-5 > 100 µM | NCI-H226 > 100 µM | NCI-H460 > 100 µM | NCI-H522 84.9 µM | LOX IMVI 63.7 µM | SF-268 > 100 µM | SN12C 20.4 µM | SNB-75 49.4 µM | UO-31 > 100 µM | UACC-257 > 100 µM | MDA-N 63.7 µM
